The text below walks through data of ChEMBL document CHEMBL4130588, “Ubiquitin-Specific Inhibitors for the Treatment of Cancers, Autoimmune, and Infectious Diseases” (ACS Med Chem Lett, 2017).

Experiment [1] in a line: Inhibition of recombinant human His6-tagged USP28-5 (1 to 1077 residues) using Ub-Rh110 as substrate pretreated for 30 mins followed by substrate addition measured after 20 mins by fluorescence assay.
In experiment [2] the target is T1, Ubiquitin carboxyl-terminal hydrolase 25 (Homo sapiens, UniProt Q9UHP3).
T1 sequence (Q9UHP3 whole entry): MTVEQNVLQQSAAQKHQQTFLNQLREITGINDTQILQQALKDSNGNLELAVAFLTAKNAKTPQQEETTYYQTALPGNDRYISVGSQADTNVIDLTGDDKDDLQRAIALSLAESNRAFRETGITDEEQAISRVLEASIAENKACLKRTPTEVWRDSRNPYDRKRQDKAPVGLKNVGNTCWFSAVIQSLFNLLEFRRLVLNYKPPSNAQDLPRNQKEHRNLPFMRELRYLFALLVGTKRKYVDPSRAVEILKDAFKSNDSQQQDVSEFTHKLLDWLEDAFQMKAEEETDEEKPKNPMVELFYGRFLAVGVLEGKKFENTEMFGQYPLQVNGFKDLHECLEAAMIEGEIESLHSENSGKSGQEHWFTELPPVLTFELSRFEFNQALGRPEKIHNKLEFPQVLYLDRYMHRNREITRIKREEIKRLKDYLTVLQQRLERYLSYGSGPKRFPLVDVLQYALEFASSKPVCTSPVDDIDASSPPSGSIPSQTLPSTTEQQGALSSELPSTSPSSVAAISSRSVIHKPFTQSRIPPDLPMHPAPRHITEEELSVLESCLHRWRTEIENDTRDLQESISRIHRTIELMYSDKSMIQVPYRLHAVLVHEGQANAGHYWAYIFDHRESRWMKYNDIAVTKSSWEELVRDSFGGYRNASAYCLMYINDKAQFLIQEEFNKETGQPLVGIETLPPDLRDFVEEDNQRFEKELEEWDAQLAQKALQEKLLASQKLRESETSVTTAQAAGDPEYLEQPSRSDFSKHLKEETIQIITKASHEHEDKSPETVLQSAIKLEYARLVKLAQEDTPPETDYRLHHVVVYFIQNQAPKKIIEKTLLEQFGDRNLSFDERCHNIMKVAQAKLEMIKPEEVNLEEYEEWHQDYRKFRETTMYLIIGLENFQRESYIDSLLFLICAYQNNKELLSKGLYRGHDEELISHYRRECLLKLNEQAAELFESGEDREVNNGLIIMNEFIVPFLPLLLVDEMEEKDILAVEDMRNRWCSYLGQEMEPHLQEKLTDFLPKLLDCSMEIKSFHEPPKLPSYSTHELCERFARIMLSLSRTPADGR
The experiment can be described thus: Inhibition of recombinant human His6-tagged USP25 expressed in baculovirus infected Sf21 insect cells using Ub-Rh110 as substrate pretreated for 30 mins followed by substrate addition measured after 45 mins by fluorescence assay.

As a reminder, the IC50 is the midpoint of a concentration-inhibition curve. On to `Cc1cnc2c(N)c(C(=O)NCCc3cc(F)c(N4CCNCC4)cc3F)sc2n1`, for which the IC50 fell in the range of 200 to 2000 nM in experiment [1] and 2000 to 10000 nM in experiment [2].

In the case of `Cc1cnc2c(N)c(C(=O)NC[C@H](C)c3ccc(N4CC5CCC(C4)N5)c(F)c3)sc2n1`, the values for the IC50 in experiment [1] and in experiment [2] were 200 to 2000 nM and 2000 to 10000 nM, respectively.

As to `Cc1cnc2c(N)c(C(=O)NCCc3ccc(N4CCNCC4)c(Cl)c3)sc2n1`, the IC50 in experiment [1] was in the range of 200 to 2000 nM.

With `Cc1cnc2c(N)c(C(=O)NC[C@@H](C)c3ccc(N4CC5CCC(C4)N5)c(F)c3)sc2n1`, the results for the IC50 in experiment [1] and in experiment [2] were 200 to 2000 nM and 2000 to 10000 nM, respectively.

With `Cc1cnc2c(N)c(C(=O)NCCc3ccc(N4CC5CCC(C4)N5)c(F)c3)sc2n1`, the IC50 in experiment [1] and in experiment [2] was under 200 nM in each case.

Consider `Cc1cnc2c(N)c(C(=O)NCCc3ccc(N4CC5CCC(C4)N5)c(Cl)c3)sc2n1`, for which, in experiment [1], the IC50 was under 200 nM.

Turning to `Cc1cnc2c(N)c(C(=O)NCCc3cc(F)c(N4CC5CCC(C4)N5)cc3F)sc2n1`, the results for the IC50 in experiment [1] and in experiment [2] were under 200 nM and 200 to 2000 nM, respectively.

Take `Cc1cnc2c(N)c(C(=O)NCCc3ccc(N4CCNCC4)cc3)sc2n1`: in experiment [1], the IC50 is 200 to 2000 nM.
